The source of these data is patent publication US20130053372A1, “5-HT RECEPTOR MODULATORS” (Cambridge Enterprise Limited, priority 2010, published 2013).

Assay [1] has as its target T1, gp5-HT1B (Cavia porcellus, UniProt O08892). The assay is described as follows: Guinea-pig frontal cortex membrane binding at gp5-HT1B (GPF). Also on record: from tissue; host or cells: guinea-pig frontal cortex membranes. As to conditions: monohydrochloride salt; for Kd: Kd from IC50 by Cheng & Prusoff, read-out: (GPF) Guinea-Pig Frontal Cortex membrane binding Affinity at gp5-HT1B Kd; for IC50: [3H]GR125743 displacement. On the procedure: Binding Protocol for Determination of Affinity in gp5-HY1B in Guinea-Pig Frontal Cortex Membranes. (GPF)
Guinea-pig frontal cortex membranes were resuspended in a buffer (50 mM Tris-HCl, 4 mM MgCl, 2.5 mM CaCl2, 1 mM EDTA and 120 mM NaCl pH 7.4) to a final concentration of 5-6 μg protein μl^−1. Receptor binding was initiated by the addition of membranes and carried out in a volume of 0.5 ml at 27° C. Non-specific binding was determined by pre-incubation for 15 min with 10 μM SB214461 (N-(3-(2-(dimethylamino)ethoxy)-4-methoxyphenyl)-2′-methyl-4′-(5-methyl-1,2,4-oxadiazol-3-yl)biphenyl-4-carboxamide, Eur. J. Pharmacol. 1997, 331, 169-174). The amount of binding in the presence or absence of a competing ligand was determined by incubation at 27° C. for 60 min with 0.6 nM [N-methyl ^3H] GR125743 (GE Life Science Products). Incubation was terminated by rapid vacuum filtration through GF/B glass fibre filters that had been presoaked in 3% polyethylenimine. Samples were washed 3 times with 1.5 ml ice-cold buffer (50 mM Tris-HCl, pH 7.4) and bound radioactivity determined by liquid scintillation counting after leaving the filters in contact with the scintillation fluid for at least 4 h before counting for 5 min in a liquid scintillation analyzer.
Specific binding was determined as B—BNS/(BTot—BNS) where B is the binding in the presence of a given competing ligand, BNS is the non-specific binding of radioligand (i.e. the binding in the presence of 10 μM SB214461), and BTot is the amount of binding of radioligand in the absence of a competing ligand. Data for specific binding as a function of the concentration of competing ligand were fitted to a single-site model to obtain a value for IC50. Kd values were derived from IC50 by the Cheng & Prusoff equation (Cheng Y, Prusoff W H (1973). Biochem Pharmacol 22, 3099-3108).

In assay [2] the target is T1, gp5-HT1B. The assay is described as follows: Guinea-pig iliac artery functional assay at gp5-HT1B (GPI). To be noted: classified as antagonism, agonism or no effect at 10 μM, against 5-nonyloxytryptamine contraction; monohydrochloride salt. Also noted: from tissue; host or cells: guinea-pig common iliac artery segments. Format: cell-based. On the procedure: Protocol for Determination of Efficacy at gp5-HT1B Receptors in the Guinea-Pig Iliac Artery. (GPI)
Guinea-pig common iliac artery segments (1.0-1.5 mm long) from Dunkin-Harley guinea-pigs (250 g-500 g) were mounted under normalized tension in oxygenated (95% O2; 5% CO2) Krebs-Henseleit solution (NaCl, 118 mM; KCl, 4.7 mM; MgSO4, 1.2 mM; KH2PO4, 1.2 mM; NaHCO3, 25 mM; CaCl2, 2.5 mM; D-glucose, 11 mM; and with indomethacin, 10 μM). After 30 min equilibration, the vessels were precontracted with 5-HT (10 μM) and tested for endothelial integrity by administration of carbachol (10 μM), endothelium-intact vessels (relaxation ≧90% to carbachol) were used for the experiments. Concentration/contraction curves to cumulative addition of 5-nonyloxytryptamine (5-NOT; a 5-HT1B receptor-selective agonist) were constructed in 25 mM KCl Krebs-Henseleit solution (standard Krebs-Henseleit solution in which the KCl concentration was increased to 25 mM by equimolar substitution of NaCl). Vessels were incubated with putative antagonists for 30 min before construction of a concentration/contraction curve for 5-NOT. Contractile responses were expressed as a percentage of the tone induced by Krebs-Henseleit solution containing 90 mM KCl after substitution of an equivalent amount of NaCl with KCl in standard Krebs-Henseleit solution. Data were analysed using non-linear procedures by fitting to a logistic equation: E=(Rmax.[A]^nH)/EC50^nH+[A]^nH), where E is the contraction induced, [A] the concentration of the agonist, Rmax the maximal increase in tension induced, nH the slope function and EC50 the concentration of producing half the maximal contractile tone. Potency was assessed using the Gaddum equation: […] where [A] is the concentration of the putative antagonist and Ka its affinity constant at the 5-HT1B receptor. Compounds are classified as having antagonism, agonism or no effect at a dose concentration of 10 μM.

For the next assay, the target named is T2, rat r5-HT1B receptors (Rattus norvegicus, UniProt P28564).
T2 construct: from tissue
Nature of the assay: Binding affinity at rat r5-HT1B receptors, rat cerebral cortex membrane binding (RBA). As to conditions: value in parentheses; monohydrochloride salt. As for the experimental part:
Binding Protocol for Determination of Affinity at rat r5-HT 1B Receptors (RBA)
This binding affinity protocol was performed according to standard conditions disclosed in Eur. J. Pharmacol. 1985, 118, 1-12.

For a further assay, the target named is human h5-HT1B receptor (Homo sapiens, UniProt P28222). Nature of the assay: Binding affinity at human h5-HT1B receptors (HBA). As to conditions: [3H]GR125743 displacement; Kd from IC50 by Cheng & Prusoff; monohydrochloride salt. On the procedure: Binding Protocol for Determination of Binding Affinity at Human […] Receptors (HBA)
Membrane preparations (5 μg in a volume of 100 μl per sample) expressing the human h5-HT1B receptor were preincubated at 27° C. in buffer (50 mM Tris HCl, 10 mM MgCl2 and 1 mM EDTA; pH 7.4) with or without 10 μM SB214461 (N-(3-(2-(dimethylamino)ethoxy)-4-methoxyphenyl)-2′-methyl-4′-(5-methyl-1,2,4-oxadiazol-3-yl)biphenyl-4-carboxamide, Eur. J. Pharmacol. 1997, 331, 169-174) (to determine non-specific binding). Receptor binding was determined by incubation at 27° C. with 3.5 nM [N-methyl-^3H] GR125743 (GE Life Science Products) for 90 min. The incubations were terminated by rapid vacuum filtration through GF/B glass fibre filters that had been presoaked in 3% polyethylenimine. Samples were washed 3 times with 1.5 ml ice-cold buffer (50 mM Tris-HCl, pH 7.4) and bound radioactivity determined by liquid scintillation counting after leaving the filters in contact with the scintillation fluid (4 ml Quicksafe ‘A’, Zinsser, Maidenhead, UK) for at least 4 h before counting for 5 min in a liquid scintillation analyzer.
Specific binding was determined as B—BNS/(BTot—BNS) where B is the binding in the presence of a given competing ligand, BNS is the non-specific binding of radioligand (i.e. the binding in the presence of 10 μM SB214461), and BTot is the amount of binding of radioligand in the absence of a competing ligand. Data for specific binding as a function of the concentration of competing ligand were fitted to a single-site model to obtain a value for […]. Kd values were derived from IC50 by the Cheng & Prusoff equation (Cheng Y, Prusoff W H (1973). Biochem Pharmacol 22, 3099-3108).

What is called Kd is a measure of binding affinity in units of concentration. As a reminder, the IC50 is the concentration that gives 50% inhibition.

T1 sequence (O08892 whole entry): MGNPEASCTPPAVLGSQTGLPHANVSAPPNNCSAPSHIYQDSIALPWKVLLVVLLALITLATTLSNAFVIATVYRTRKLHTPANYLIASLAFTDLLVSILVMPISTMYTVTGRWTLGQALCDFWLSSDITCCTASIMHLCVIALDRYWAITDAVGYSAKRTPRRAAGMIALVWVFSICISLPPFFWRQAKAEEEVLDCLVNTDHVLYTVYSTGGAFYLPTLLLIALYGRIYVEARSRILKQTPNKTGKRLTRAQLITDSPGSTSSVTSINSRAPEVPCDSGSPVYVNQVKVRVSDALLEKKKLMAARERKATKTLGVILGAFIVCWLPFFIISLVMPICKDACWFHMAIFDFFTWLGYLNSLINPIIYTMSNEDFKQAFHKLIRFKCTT
T2 sequence (P28564 whole entry): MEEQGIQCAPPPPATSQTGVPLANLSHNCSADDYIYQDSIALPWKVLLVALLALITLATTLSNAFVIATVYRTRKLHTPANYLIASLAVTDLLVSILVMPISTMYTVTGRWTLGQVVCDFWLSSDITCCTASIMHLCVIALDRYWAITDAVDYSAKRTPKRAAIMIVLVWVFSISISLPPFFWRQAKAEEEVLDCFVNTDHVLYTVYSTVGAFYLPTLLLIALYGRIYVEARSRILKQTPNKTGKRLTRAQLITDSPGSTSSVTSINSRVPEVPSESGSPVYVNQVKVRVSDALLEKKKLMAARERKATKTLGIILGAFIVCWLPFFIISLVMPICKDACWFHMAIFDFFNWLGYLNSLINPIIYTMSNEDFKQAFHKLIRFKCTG
Chain of human h5-HT1B receptor (P28222 whole entry): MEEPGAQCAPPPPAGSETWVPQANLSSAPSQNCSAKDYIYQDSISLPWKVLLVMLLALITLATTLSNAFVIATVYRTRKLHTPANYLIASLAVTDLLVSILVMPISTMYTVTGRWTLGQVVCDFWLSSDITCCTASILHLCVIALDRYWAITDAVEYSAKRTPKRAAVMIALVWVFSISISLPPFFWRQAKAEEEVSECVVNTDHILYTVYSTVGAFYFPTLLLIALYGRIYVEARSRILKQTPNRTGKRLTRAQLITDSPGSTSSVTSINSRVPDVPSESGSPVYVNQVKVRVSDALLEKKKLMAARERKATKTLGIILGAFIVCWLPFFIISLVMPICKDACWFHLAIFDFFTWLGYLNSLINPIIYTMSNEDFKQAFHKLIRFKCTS

With `CN1CCN(c2cc(N3CCNS3(=O)=O)cc3ccoc23)CC1` [Example 50a, 2-(7-(4-methylpiperazin-1-yl)benzofuran-5-yl)-1,1-dioxo-1,2,5-thiadiazolidine], at gp5-HT1B [1], the Kd came to 0.7 µM and the IC50 was 1.4 µM. Moreover, the “(GPI) Guinea-Pig Iliac Artery functional assay at gp5-HT1B” value on gp5-HT1B [2] was “Antagonist”. The IC50 at rat r5-HT1B receptors came to 0.86 µM.
As to `CN1CCN(c2cc(N3CCCC3=O)ccc2F)CC1` [Example 30, 1-(4-fluoro-3-(4-methylpiperazin-1-yl)phenyl)pyrollidin-2-one], at gp5-HT1B [1], the Kd turned out to be 2 µM and the IC50 was determined as 4 µM. For the same compound, the “(GPI) Guinea-Pig Iliac Artery functional assay at gp5-HT1B” value on gp5-HT1B [2] was “Antagonist”.
For `COc1ccc(N2CCCC2=O)cc1N1CCC(N(C)C)CC1` [13e, 1-(3-(4-(dimethylamino)piperidin-1-yl)-4-methoxyphenyl)pyrrolidin-2-one, reference compound], the “(GPI) Guinea-Pig Iliac Artery functional assay at gp5-HT1B” value on gp5-HT1B [2] is “Antagonist”.
On to `C[C@@H]1CN(c2cc(N3CCCC3=O)cc3c2OCC3)C[C@H](C)N1` [Example 26b, 1-(7-((3S,5R)-3,5-dimethylpiperazin-1-yl)-2,3-dihydrobenzofuran-5-yl)pyrrolidin-2-one], for which, at rat r5-HT1B receptors, the IC50 turned out to be 9.6 µM.
Consider `COc1ccc(N2CCOC2=O)cc1N1CCN(C)CC1` [Example 13b, 3-(4-methoxy-3-(4-methylpiperazin-1-yl)phenyl)oxazolidin-2-one], for which the “(GPI) Guinea-Pig Iliac Artery functional assay at gp5-HT1B” value at gp5-HT1B [2] is “Antagonist”.
On to `COc1ccc(N2CCCC2=O)cc1N1CCN(C)CC1` [Example 5a, 1-(4-methoxy-3-(4-methylpiperazin-1-yl)phenyl)pyrrolidin-2-one], for which, at gp5-HT1B [1], the Kd came out at 15 µM and the IC50 was determined as 30 µM. Moreover, the “(GPI) Guinea-Pig Iliac Artery functional assay at gp5-HT1B” value at gp5-HT1B [2] is reported as “Antagonist”.
As to `COc1ccc(N2CCCC2=O)cc1N1C[C@@H](C)N[C@@H](C)C1` [Example 13a, 1-(3-((3R,5S)-3,5-dimethylpiperazin-1-yl)-4-methoxyphenyl)pyrrolidin-2-one], the “(GPI) Guinea-Pig Iliac Artery functional assay at gp5-HT1B” value on gp5-HT1B [2] was “Antagonist”.
`CN1CCN(c2cc(N3CCOC3=O)cc3ccoc23)CC1` [Example 47a, 3-(7-(4-methylpiperazin-1-yl)benzofuran-5-yl)oxazolidin-2-one]: on gp5-HT1B [1], the Kd turned out to be 0.225 µM and the IC50 stood at 0.45 µM. Moreover, on human h5-HT1B receptor, the Kd is 13.5 µM. Also, the “(GPI) Guinea-Pig Iliac Artery functional assay at gp5-HT1B” value on gp5-HT1B [2] is “Antagonist”.
As for `COc1ccc(N2CCCS2(=O)=O)cc1N1CCCN(C)CC1` [Example 18b, 2-(4-methoxy-3-(4-methyl-1,4-diazepan-1-yl)phenyl)-1,1-dioxoisothiazolidine], at rat r5-HT1B receptors, the IC50 is 12 µM.
For the compound `COc1ccc(N2CCOC2=O)cc1N1C[C@@H](C)N[C@@H](C)C1` [Example 13d, 3-(3-((3R,5S)-3,5-dimethylpiperazin-1-yl)-4-methoxyphenyl)oxazolidin-2-one], the “(GPI) Guinea-Pig Iliac Artery functional assay at gp5-HT1B” value on gp5-HT1B [2] is on record as “No effect”.
In the case of `CN1CCN(c2cc(N3CCCC3=O)cc3ccoc23)CC1` [Example 45, 1-(7-(4-methylpiperazin-1-yl)benzofuran-5-yl)pyrrolidin-2-one], the figures for the Kd on gp5-HT1B [1] and on human h5-HT1B receptor were 0.2 µM and 4.5 µM, respectively. Moreover, the IC50 on gp5-HT1B [1] came out at 0.4 µM. For the same compound, the “(GPI) Guinea-Pig Iliac Artery functional assay at gp5-HT1B” value at gp5-HT1B [2] was “Antagonist”.
Turning to `COc1ccc(N2CCCC2=O)cc1N(C)CCN(C)C` [13f, 1-(3-((2-(dimethylamino)ethyl)(methyl)amino)-4-methoxyphenyl)pyrrolidin-2-one, reference compound], the “(GPI) Guinea-Pig Iliac Artery functional assay at gp5-HT1B” value on gp5-HT1B [2] is given as “No effect”.
On to `COC(=O)N1CCN(c2cc(N3CCN(C)CC3)c3occc3c2)S1(=O)=O` [Example 49a, methyl 5-(7-(4-methylpiperazin-1-yl)benzofuran-5-yl)-1,1-dioxo-1,2,5-thiadiazolidine-2-carboxylate], for which, on gp5-HT1B [1], the dissociation constant Kd worked out at 0.23 µM and the IC50 came to 0.46 µM. In addition, on human h5-HT1B receptor, the Kd stood at 1.8 µM. For the same compound, on gp5-HT1B [2], the “(GPI) Guinea-Pig Iliac Artery functional assay at gp5-HT1B” value is “Antagonist”.
Take `COc1ccc(N2CCCC2=O)cc1N1CCCN(C)CC1` [Example 13c, 1-(4-methoxy-3-(4-methyl-1,4-diazepan-1-yl)phenyl)pyrrolidin-2-one]: the “(GPI) Guinea-Pig Iliac Artery functional assay at gp5-HT1B” value at gp5-HT1B [2] is “Antagonist”.
